# What was measured:
# [1] = tested on: HT-29 human colon carcinoma cells; details: stated as known, not tested; cited from earlier work
# [2] = tested on: HT-29 human colon carcinoma cells; experiment: Tumor recurrence after surgery and Bleomycin electroporation therapy (EPT) in nude mice with HT-29 tumors; format: in vivo; details: for % efficacy (animals that did NOT experience tumor growth post treatment): three weeks after treatment
# Procedure: In this example, a series of experiments were performed in mice wherein tumor recurrence rates were determined after surgery alone or after surgery and EPT. Specifically, this experiment comprises an in vivo study to establish the efficacy of EPT on surgical margin treatment in nude mice after subcutaneous introduction of HT-29 human colon carcinoma cells and resection of the tumors that arise from such introduction. The experiment was conducted under humane conditions with respect to treatment of the test animals.
# The experimental design was as follows. Normal Athymic Nude female mice 4-6 weeks of age were placed in 8 groups of six mice each, except for Group 1 which comprised 10 animals and Group 3 comprising 7 animals. The HT-29 cell line is derived from a human colon carcinoma and is an aggressive fast-growing tumor in mice. In each group the animals received HT-29 human tumor cells in the form of two adjacent inocula of 5×10^6 cells using a 21 gauge needle and syringe. The HT-29 cell line was obtained from […] (#HTB-38), grown in McCoy's 5a medium (modified) with 1.5 mM L-glutamine adjusted to contain 2.2 g/L sodium bicarbonate, 90%, and fetal bovine serum, 10%. Cells were divided 1:2 to 1:4 on growth cycles until sufficient cells were available to use in this experiment.
# Following inoculation the tumors became established at the site of the inoculations. The tumor volume on each animal was monitored regularly and calculated using the formula: Tumor volume=(a^2×b/2) where ‘a’ is the smallest diameter and ‘b’ is the largest diameter perpendicular to ‘a’. Tumors were measured three times per week starting from the day the tumors were palpable by hand. The tumors were allowed to progress until the size was between 500 and 1500 cubic millimeters. Surgical tumor removal, partial removal, or no removal was then performed in association with either EPT or no EPT. In these experiments EPT means treatment with Bleomycin and electroporation (EP). The EP, where performed, was conducted with one pulse cycle (i.e., 6 pulses at 4 Hz) per electrode insertion using a standard MedPulser generator (Genetronics, Inc. San Diego, Calif.) and an applicator with a disposable six needle array of 1 cm diameter, a distance between electrodes of 0.86 cm, and 1 cm needle length. […] The needle array was inserted percutaneously and essentially perpendicular to the surface of the flank of the mouse carrying the tumor. Alternatively, in those cases where the tumor was excised first, followed by i.v. injection of Bleomycin and then by EP, the needle electrode array was inserted percutaneously encompassing the surgical wound area (Groups 5-8).
# Where Bleomycin was used in the experiment, it was injected at 4 U/ml saline (1U=1 mg) as uniformly as possible into tumor and margin tissues, as indicated, at a dose of 0.25 ml/cm^3 volume of tissue to be treated. Alternatively, where indicated, a corresponding amount of Bleomycin was injected into the tail vein.
# The experiment used 8 cohorts of at least 6 mice each. Each cohort was subjected to a treatment regimen of a combination of any of EP, Bleomycin, saline instead of Bleomycin, complete tumor excision, partial tumor excision, and no tumor excision. Tables II and III disclose the treatment regimens.
# For experiments on animals listed in Table II, the animals were anaesthetized, followed by removal or partial removal of the tumor as indicated, followed in turn by intraveneous (i.v.) injection of Bleomycin or saline. The Bleomycin dose was dependent on tumor size as described above. After 3 to 4 minutes, the animals indicated were treated with EP followed by closure of the wound with clips and surgical adhesive. In cohort 1, the entire tumor was surgically removed (see, for example FIGS. 12B and C) and the animals treated with Bleomycin and EP. In cohort 2, the tumors were removed from the animals but only saline was injected instead of Bleomycin and no EP was performed. […]
# [3] = Breaking strength of healing skin incisions in swine after Bleomycin with or without electroporation; format: in vivo
# Procedure: (§1) In this experiment eighteen transcutaneous incisions were made into the dorsal muscles in each of eight pig test animals grouped 1-6. In study groups 1-5, longitudinal incisions were made while in group 6 the incisions were transverse to the longitudinal orientation of the muscle fiber. At each incision site, either nothing, normal saline, or Bleomycin in solution was injected such that injections were placed to a 1 cm depth and spaced at 1 cm distances from one another with three injections, one on each side of each incision within 3 cm of each other and one in the center of the incision. Bleomycin, an anti-cancer agent, was used wherein each injection consisted of 0.125 ml (4 units/ml saline). The incisions were then treated with bipolar pulses of 530 V, 100 μsec each, from a pulse generator using a 6-needle electrode array of 0.5 cm diameter (nominal field strength for each pulse was 1,233 V/cm).
# (§2) Specifically, 8 male Yorkshire/Hampshire cross swine (40-50 kg) were acclimated 5-7 days prior to surgery. Incision locations were marked on the dorsum using sterile surgical markers. Each incision was 5 cm long and made to a depth of 5 mm into the muscle. All animals in groups 1-5 received 18 longitudinal incisions each, while animals in group 6 received transverse incisions, in accordance with Table I. Each study group comprised 24 incisions.
# Injections of a total volume of 1.5 ml of saline or Bleomycin (6 U) were administered at 12 sites per incision, 6 in the muscle and 6 in the skin. Incisions treated with electroporation were electroporated using a 0.5 cm diameter, 1.5 cm long needle array. On each side of the muscle incision, electroporation was given 3 times in the central 3 cm of the incision, each electroporation site being 1 cm apart from the other. Skin was not electroporated. The epimysium was closed with 4-0 Vicryl absorbable interrupted sutures. The skin was closed with 4-0 nylon interrupted sutures. Swine were sacrificed at 2 d, 1 wk, 2 wks, or 3 wks following surgery. Histology specimens containing skin and at least 5 mm depth of underlying muscle were taken from the center of the incision and immediately placed in 10% neutral buffered formalin. An additional control specimen was taken from non-incised skin on the dorsum. After staining and sectioning, skin, subcutaneous tissue, and muscle were graded histologically on a 0-3 scale using the following parameters: Healing, Granulations/Fibrosis, PMN's, Lymphocytes, Histiocytes, Necrosis, Hemorrhage and Atypical Cells.
# Mechanical testing was performed on strips of skin removed from the center of the incision at three different time points, namely, Days 7, 14, and 21. […] Breaking strength was determined by plotting the […] versus the strain for each incision up to the breaking point. […]
# [4] = Histological evaluation of incision healing (skin, subcutaneous tissue, muscle) in swine; format: in vivo
# Procedure: as §1, §2
# Injections of a total volume of 1.5 ml of saline or Bleomycin (6 U) were administered at 12 sites per incision, 6 in the muscle and 6 in the skin. Incisions treated with electroporation were electroporated using a 0.5 cm diameter, 1.5 cm long needle array. On each side of the muscle incision, electroporation was given 3 times in the central 3 cm of the incision, each electroporation site being 1 cm apart from the other. Skin was not electroporated. The epimysium was closed with 4-0 Vicryl absorbable interrupted sutures. The skin was closed with 4-0 nylon interrupted sutures. Swine were sacrificed at 2 d, 1 wk, 2 wks, or 3 wks following surgery. […]
# [5] = tested on: HT-29 human colon carcinoma cells; experiment: Gross consistency of HT-29 tumors excised at various times after Bleomycin-EPT; format: in vivo, mice
# Procedure: For this purpose, three additional cohort Groups 9, 10, and 11 were used.
# The animals of Group 9 were anaesthetized followed by complete excision of the tumors. The tumors were examined for consistency and preserved in formalin for later histological evaluation, as were the tumor tissues of cohorts 10 and 11. Anaesthetized animals of cohort 10 were subjected to intratumoral administration of Bleomycin solution at a dose and volume as described above. EP was performed 10 minutes after drug administration. Tumors were excised 2 hrs after EP. Animals of cohort 11 were treated as those in cohort 10 except that their tumors were completely removed at 24 hrs after EP. All wounds were closed as described above. Results
# With respect to cohorts 9-11, we observed that the consistency of the tumor changed progressively with time after treatment. […] At that time point surgical excision was somewhat difficult because the boundaries of the tumor were ill defined as compared to the solid tumor tissue mass of cohort 9 animals. […] These observations provide proof of the opportunity of using drug, such as Bleomycin or other anticancer agent, in combination with EPT as adjuvant or tumor debulking therapy that can additionally be used alone or in conjunction with other cancer therapies. For example, a tumor could be treated with Bleomycin-EPT, the disintegrated tumor material be removed by a simple minimally invasive procedure, and if desired, followed by conventional treatments such as radiation or chemotherapy, or other tumor therapy modalities. Easy removal of the liquefied tumor material can also allow the wound to heal faster and with fewer complications, especially in the case of large tumors.
substance,measurement,setting,value
Bleomycin,antitumoral activity of Bleomycin administration without EP,[1],no significant antitumoral activity
same,% efficacy (animals that did NOT experience tumor growth post treatment),"[2]; Group 1: complete tumor excision, Bleomycin i.v., EP",90%
same,tumor recurrence at the site of treatment,"[2]; Group 1: complete tumor removal, Bleomycin-EP, 3 weeks post treatment (FIG. 12)",no tumor recurred
same,% efficacy (animals that did NOT experience tumor growth post treatment),"[2]; Group 3: partial tumor excision, Bleomycin i.v., EP",67%
same,% efficacy (animals that did NOT experience tumor growth post treatment),"[2]; Group 5: Bleomycin intratumoral, EP, complete tumor excision 15 minutes later",100%
same,% efficacy (animals that did NOT experience tumor growth post treatment),"[2]; Group 6: no tumor excision, Bleomycin intratumoral, EP",80%
same,% efficacy (animals that did NOT experience tumor growth post treatment),"[2]; Group 7: Bleomycin intratumoral, EP, partial tumor excision 15 minutes later",100%
same,tumor recurrence,"[2]; Group 7: partial tumor removal, Bleomycin i.t. and EP, 3 weeks (FIG. 13)",no tumor recurrence
same,% efficacy (animals that did NOT experience tumor growth post treatment),"[2]; Group 8: no tumor excision, Bleomycin intratumoral, partial (off-centered) EP",67%
same,tumor recurrence,"[2]; cohorts 5 and 7: Bleomycin i.t. and EP, excision 15 minutes after treatment",no tumor recurrence
same,reduction of breaking strength of skin incisions compared to non-Bleomycin groups,"[3]; 1 week post-incision, all three Bleomycin treated groups (with or without EP)",90%
same,"wound strength (breaking point), difference between saline and Bleomycin with or without EP","[3]; three weeks post incision, FIG. 1",no substantial difference
same,"breaking strength of skin incisions, difference between groups","[3]; week 2, longitudinal incisions, Bleomycin with or without EP (Groups 4, 5) vs Groups 1-3",no significant differences between Groups 1-5
same,"breaking strength of skin incisions, difference between groups","[3]; week 3, Group 6, transverse incisions with Bleomycin and EP vs Groups 1-5",significantly lower breaking strength
same,"muscle necrosis, Bleomycin plus EP vs Bleomycin","[4]; 2 weeks, difference disappeared by 3 weeks",significant increase in muscle necrosis
same,histological changes,"[4]; day 7, Bleomycin groups",statistically significant changes
same,histology compared with controls,"[4]; day 21, all Bleomycin injected samples",comparable with saline-injected controls
same,consistency of the tumor,[5]; cohort 10: excised two hours after i.t. Bleomycin-EP,"softer, less well defined"
same,consistency of the tumor,[5]; cohort 11: excised 24 hrs after i.t. Bleomycin-EP,completely softened
same,consistency of the tumor,[5]; cohorts 5 and 7: removed 15 minutes after i.t. Bleomycin-EP,softening of the tumor
